According to US12459922B2 (Gilead Sciences, Inc., priority 2022, dated 2025):

What was measured:
PARP7 = target: T1, PARP7 (Homo sapiens, UniProt Q7Z3E1); test: Probe Displacement Assay for PARP7 (MSD electrochemiluminescent, biotinylated probe RBNO11147); conditions: displacement of biotinylated probe RBNO11147 from PARP7 NAD+-binding site; read-out: MSD ProbeDisp PARP7 IC50
T1 sequence (Q7Z3E1 1-657): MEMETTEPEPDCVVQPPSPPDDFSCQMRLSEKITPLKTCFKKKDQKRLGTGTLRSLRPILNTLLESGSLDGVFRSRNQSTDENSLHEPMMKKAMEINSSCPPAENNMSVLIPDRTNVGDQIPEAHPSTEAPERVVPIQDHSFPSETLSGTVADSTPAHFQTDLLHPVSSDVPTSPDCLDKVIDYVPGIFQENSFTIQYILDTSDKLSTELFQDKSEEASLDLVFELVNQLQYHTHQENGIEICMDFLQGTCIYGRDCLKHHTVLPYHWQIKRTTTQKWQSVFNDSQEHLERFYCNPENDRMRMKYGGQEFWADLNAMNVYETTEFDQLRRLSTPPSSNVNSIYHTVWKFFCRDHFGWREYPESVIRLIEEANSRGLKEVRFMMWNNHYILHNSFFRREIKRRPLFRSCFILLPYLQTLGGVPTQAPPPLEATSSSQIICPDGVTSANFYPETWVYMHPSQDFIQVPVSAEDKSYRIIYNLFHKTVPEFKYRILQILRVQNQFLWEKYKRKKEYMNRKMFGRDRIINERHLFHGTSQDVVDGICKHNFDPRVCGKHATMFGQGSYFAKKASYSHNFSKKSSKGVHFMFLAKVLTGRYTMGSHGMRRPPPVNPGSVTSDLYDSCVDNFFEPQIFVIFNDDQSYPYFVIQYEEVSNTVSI
Description: Displacement of a biotinylated probe (RBNO11147; Wigle et al., Cell Chemical Biology, 2020, pp. 877-887) from the PARP7 NAD+-binding site was measured in vitro using a Mesoscale Discovery electrochemiluminescent assay. […] Next, 10 ml of 10 nM PARP7 protein incubated for 1 hour at room temperature with a dose response curve of each test compound in a Greiner LDV polypropylene plate (#781201) is added to the MSD plate containing the immobilized probe. The interaction is allowed to reach equilibrium for 1.5 hours, and then 10 ml of SULFO-TAG labeled anti-GST antibody (Cat #R32AA-1) is added to each well and allowed to incubate for an additional 1.5 hours at room temperature. Finally, 10 ml of MSD read buffer T (4×, Cat. #R92C-1) is added to each well using a Bravo liquid handler to prevent air bubbles in the wells, and the plates are subsequently read in an MSD instrument. Light intensity is then measured to quantify the amount of PARP7 bound to the immobilized probe on the plate.

[1] = tested on: endogenous cellular STAT1 (phosphorylated at Tyr701) in NCI-H1373 cells; test: Phospho-STAT1 (Tyr701) LANCE Ultra TR-FRET Detection Assay; assay type: cell-based; conditions: Homo sapiens, NCI-H1373, 48 h, phospho-STAT1 (Tyr701) induction, read-out: NH1373 pSTAT1 EC50

**Q.** Which results are given for `O=c1[nH]ncc(N[C@H](CCCn2ccc3cc(-c4ncc(C(F)(F)F)cn4)c(F)cc3c2=O)COC(F)F)c1C(F)(F)F` [Example 168, 2-[(4R)-5-(difluoromethoxy)-4-[[6-oxo-5-(trifluoromethyl)-1H-pyridazin-4-yl]amino]pentyl]-7-fluoro-6-[5-(trifluoromethyl)pyrimidin-2-yl]isoquinolin-1-one]?
**A.** IC50 (PARP7): 0.256 nM; EC50 [1]: 1.32 nM

**Q.** `C[C@@H](CCCn1ccc2cc(-c3ncc(CN)cn3)c(F)cc2c1=O)Nc1cn[nH]c(=O)c1C(F)(F)F` [Example 302, (S)-6-(5-(aminomethyl)pyrimidin-2-yl)-7-fluoro-2-(4-((6-oxo-5-(trifluoromethyl)-1,6-dihydropyridazin-4-yl)amino)pentyl)isoquinolin-1(2H)-one] was tested. Which IC50 (PARP7) did it give?
**A.** 2.06 nM

**Q.** What about the EC50 [1] of the same compound?
**A.** 108 nM

**Q.** With `C[C@@H](CCCn1ccc2cc(-c3cn4ccccc4n3)c(F)cc2c1=O)Nc1cn[nH]c(=O)c1C(F)(F)F` [Example 305, (S)-7-fluoro-6-(imidazo[1,2-a]pyridin-2-yl)-2-(4-((6-oxo-5-(trifluoromethyl)-1,6-dihydropyridazin-4-yl)amino)pentyl)isoquinolin-1(2H)-one] as the compound, how does the IC50 (PARP7) read?
**A.** 0.387 nM

**Q.** And the EC50 [1]?
**A.** 57 nM

**Q.** What does the source list for `C[C@@H](CCCn1ccc2cc(-c3cccc4c3OCCO4)c(F)cc2c1=O)Nc1cn[nH]c(=O)c1C(F)(F)F` [Example 27, (S)-6-(2,3-dihydrobenzo[b][1,4]dioxin-5-yl)-7-fluoro-2-(4-((6-oxo-5-(trifluoromethyl)-1,6-dihydropyridazin-4-yl)amino)pentyl)isoquinolin-1(2H)-one]?
**A.** IC50 (PARP7): 25 nM; EC50 [1]: 10000 nM

**Q.** With `Cc1cc2cc(-c3ncc(C(F)(F)F)cn3)ccc2c(=O)n1CCC[C@H](C)Nc1cn[nH]c(=O)c1C(F)(F)F` [Example 45, 3-methyl-2-[(4S)-4-[[6-oxo-5-(trifluoromethyl)-1H-pyridazin-4-yl]amino]pentyl]-6-[5-(trifluoromethyl)pyrimidin-2-yl]isoquinolin-1-one] as the compound, how does the IC50 (PARP7) read?
**A.** 1.19 nM

**Q.** What about the EC50 [1] of the same compound?
**A.** 617 nM

**Q.** Which IC50 (PARP7) does the source give for `CC[C@@H](CCCn1cnc2cc(-c3ncc(C(F)(F)F)cn3)c(F)cc2c1=O)Nc1cn[nH]c(=O)c1C(F)(F)F` [Example 155, (S)-6-fluoro-3-(4-((6-oxo-5-(trifluoromethyl)-1,6-dihydropyridazin-4-yl)amino)hexyl)-7-(5-(trifluoromethyl)pyrimidin-2-yl)quinazolin-4(3H)-one] here?
**A.** 0.2 nM

**Q.** What about the EC50 [1] of the same compound?
**A.** 21.2 nM

**Q.** `C[C@@H](CCCn1ccc2cc(-c3ncc(C(F)F)cn3)c(F)c(F)c2c1=O)Nc1cn[nH]c(=O)c1C(F)(F)F` [Example 53, (S)-6-(5-(difluoromethyl)pyrimidin-2-yl)-7,8-difluoro-2-(4-((6-oxo-5-(trifluoromethyl)-1,6-dihydropyridazin-4-yl)amino)pentyl)isoquinolin-1(2H)-one] was tested. Which IC50 (PARP7) did it give?
**A.** 0.496 nM

**Q.** What about the EC50 [1] of the same compound?
**A.** 17 nM

**Q.** With `C[C@@H](CCCn1ccc2cc(-c3ncc(C(F)(F)F)c(N4C[C@@H](O)C[C@@H]4C)n3)c(F)cc2c1=O)Nc1cn[nH]c(=O)c1C(F)(F)F` [Example 312, 7-fluoro-6-(4-((2S,4S)-4-hydroxy-2-methylpyrrolidin-1-yl)-5-(trifluoromethyl)pyrimidin-2-yl)-2-((S)-4-((6-oxo-5-(trifluoromethyl)-1,6-dihydropyridazin-4-yl)amino)pentyl)isoquinolin-1(2H)-one] as the compound, how does the IC50 (PARP7) read?
**A.** 0.623 nM

**Q.** What about the EC50 [1] of the same compound?
**A.** 70 nM

**Q.** Which IC50 (PARP7) does the source give for `C[C@@H](CCCn1ccc2cc(-c3ccc(OC(F)F)cn3)c(F)c(F)c2c1=O)Nc1cn[nH]c(=O)c1C(F)(F)F` [Example 57, (S)-6-(5-(difluoromethoxy)pyridin-2-yl)-7,8-difluoro-2-(4-((6-oxo-5-(trifluoromethyl)-1,6-dihydropyridazin-4-yl)amino)pentyl)isoquinolin-1(2H)-one] here?
**A.** 0.613 nM

**Q.** And the EC50 [1]?
**A.** 144 nM

**Q.** What does the source list for `C[C@@H](CCCn1ccc2cc(-c3ncc(F)cn3)c(F)cc2c1=O)Nc1cn[nH]c(=O)c1C(F)(F)F` [Example 34, 7-fluoro-6-(5-fluoropyrimidin-2-yl)-2-[(4S)-4-[[6-oxo-5-(trifluoromethyl)-1H-pyridazin-4-yl]amino]pentyl]isoquinolin-1-one]?
**A.** IC50 (PARP7): 0.6 nM; EC50 [1]: 429 nM

**Q.** With `C[C@@H](CCCn1ccc2cc(-c3ccc(C(N)C(F)(F)F)cn3)c(F)cc2c1=O)Nc1cn[nH]c(=O)c1C(F)(F)F` (stereo partly drawn) [Example 50, 6-[5-(1-amino-2,2,2-trifluoro-ethyl)-2-pyridyl]-7-fluoro-2-[(4S)-4-[[6-oxo-5-(trifluoromethyl)-1H-pyridazin-4-yl]amino]pentyl]isoquinolin-1-one] as the compound, how does the IC50 (PARP7) read?
**A.** 2.13 nM

**Q.** What about the EC50 [1] of the same compound?
**A.** 2760 nM

**Q.** Which results are given for `C[C@@H](CCCn1ccc2cc(-c3cnc(C(F)(F)F)cn3)c(F)cc2c1=O)Nc1cn[nH]c(=O)c1C(F)(F)F` [Example 21, 7-fluoro-2-[(4S)-4-[[6-oxo-5-(trifluoromethyl)-1H-pyridazin-4-yl]amino]pentyl]-6-[5-(trifluoromethyl)pyrazin-2-yl]isoquinolin-1-one]?
**A.** IC50 (PARP7): 0.3 nM; EC50 [1]: 136 nM

**Q.** For `C[C@@H](CCCn1ccc2cc(-c3nc4ccccn4n3)c(F)cc2c1=O)Nc1cn[nH]c(=O)c1C(F)(F)F` [Example 306, (S)-6-([1,2,4]triazolo[1,5-a]pyridin-2-yl)-7-fluoro-2-(4-((6-oxo-5-(trifluoromethyl)-1,6-dihydropyridazin-4-yl)amino)pentyl)isoquinolin-1(2H)-one], which IC50 (PARP7) is on record?
**A.** 0.21 nM

**Q.** What about the EC50 [1] of the same compound?
**A.** 2.18 nM

**Q.** Which IC50 (PARP7) does the source give for `O=c1[nH]ncc(N[C@H](CCCn2ccc3cc(-c4ncc(C(F)F)cn4)c(F)cc3c2=O)COC(F)F)c1C(F)(F)F` [Example 377, (R)-2-(5-(difluoromethoxy)-4-((6-oxo-5-(trifluoromethyl)-1,6-dihydropyridazin-4-yl)amino)pentyl)-6-(5-(difluoromethyl)pyrimidin-2-yl)-7-fluoroisoquinolin-1(2H)-one] here?
**A.** 0.179 nM

**Q.** And the EC50 [1]?
**A.** 1.15 nM

**Q.** With `O=c1[nH]ncc(N[C@H](CCCn2ccc3cc(-c4ncc(C(F)(F)F)cn4)c(F)cc3c2=O)C2CC2)c1C(F)(F)F` [Example 36, 2-[(4R)-4-cyclopropyl-4-[[6-oxo-5-(trifluoromethyl)-1H-pyridazin-4-yl]amino]butyl]-7-fluoro-6-[5-(trifluoromethyl)pyrimidin-2-yl]isoquinolin-1-one] as the compound, how does the IC50 (PARP7) read?
**A.** 0.7 nM

**Q.** And the EC50 [1]?
**A.** 74.1 nM

**Q.** Which IC50 (PARP7) does the source give for `C[C@@H](CCCn1ccc2cc(-c3ccc(C(F)(F)F)cn3)ncc2c1=O)Nc1cn[nH]c(=O)c1C(F)(F)F` [Example 13, 2-[(4S)-4-[[6-oxo-5-(trifluoromethyl)-1H-pyridazin-4-yl]amino]pentyl]-6-[5 (trifluoromethyl)-2-pyridyl]-2,7-naphthyridin-1-one] here?
**A.** 3.7 nM

**Q.** And the EC50 [1]?
**A.** 10000 nM

**Q.** Which results are given for `C[C@@H](CCCn1ccc2nc(-c3ccc(C(F)(F)F)cn3)ccc2c1=O)Nc1cn[nH]c(=O)c1C(F)(F)F` [Example 14]?
**A.** IC50 (PARP7): 0.5 nM; EC50 [1]: 94.3 nM

**Q.** How did the IC50 (PARP7) turn out when `C[C@@H](CCCn1ccc2cc(-c3ccc(C#N)cn3)c(F)cc2c1=O)Nc1cn[nH]c(=O)c1C(F)(F)F` [Example 25, (S)-6-(7-fluoro-1-oxo-2-(4-((6-oxo-5-(trifluoromethyl)-1,6-dihydropyridazin-4-yl)amino)pentyl)-1,2-dihydroisoquinolin-6-yl)nicotinonitrile] was run?
**A.** 0.6 nM

**Q.** And the EC50 [1]?
**A.** 136 nM

**Q.** For `O=c1[nH]ncc(N[C@H](CCCn2ccc3cc(-c4ncc(Cl)cn4)c(F)cc3c2=O)COC(F)F)c1C(F)(F)F` [Example 381, (R)-6-(5-chloropyrimidin-2-yl)-2-(5-(difluoromethoxy)-4-((6-oxo-5-(trifluoromethyl)-1,6-dihydropyridazin-4-yl)amino)pentyl)-7-fluoroisoquinolin-1(2H)-one], which IC50 (PARP7) is on record?
**A.** 0.28 nM

**Q.** And the EC50 [1]?
**A.** 0.885 nM

**Q.** With `C[C@@H](CCCn1cnc2cc(-c3ncc(C(F)(F)F)c(N4CC(C#N)C4)n3)c(F)cc2c1=O)Nc1cn[nH]c(=O)c1C(F)(F)F` [Example 206] as the compound, how does the IC50 (PARP7) read?
**A.** 0.188 nM

**Q.** What about the EC50 [1] of the same compound?
**A.** 9.34 nM

**Q.** What does the source list for `C[C@@H](CCCn1ccc2cc(-c3ccc(C4(C(F)(F)F)CC4)cn3)cc(F)c2c1=O)Nc1cn[nH]c(=O)c1C(F)(F)F` [Example 39, 8-fluoro-2-[(4S)-4-[[6-oxo-5-(trifluoromethyl)-1H-pyridazin-4-yl]amino]pentyl]-6-[5-[1-(trifluoromethyl)cyclopropyl]-2-pyridyl]isoquinolin-1-one]?
**A.** IC50 (PARP7): 2.5 nM; EC50 [1]: 890 nM

**Q.** What does the source list for `C[C@@H](CCCn1ccc2cc(-c3nc(C(F)(F)F)n(C)n3)c(F)cc2c1=O)Nc1cn[nH]c(=O)c1C(F)(F)F` [Example 300, (S)-7-fluoro-6-(1-methyl-5-(trifluoromethyl)-1H-1,2,4-triazol-3-yl)-2-(4-((6-oxo-5-(trifluoromethyl)-1,6-dihydropyridazin-4-yl)amino)pentyl)isoquinolin-1(2H)-one]?
**A.** IC50 (PARP7): 0.413 nM; EC50 [1]: 56.1 nM

**Q.** How did the IC50 (PARP7) turn out when `C[C@@H](CCCn1ccc2cc(-c3ccc(C4(C#N)CC4)cn3)cc(F)c2c1=O)Nc1cn[nH]c(=O)c1C(F)(F)F` [Example 38, 1-[6-[8-fluoro-1-oxo-2-[(4S)-4-[[6-oxo-5-(trifluoromethyl)-1H-pyridazin-4-yl]amino]pentyl]-6-isoquinolyl]-3-pyridyl]cyclopropanecarbonitrile] was run?
**A.** 0.3 nM

**Q.** What about the EC50 [1] of the same compound?
**A.** 579 nM
